Measured values: patent US10294202B2, “Pyrrolidinones as herbicides” (FMC Corporation, priority 2013, dated 2019)

Tests used:
[1] = tested on: giant foxtail; experiment: Test A pre-/postemergence herbicide test; format: in vivo, Setaria faberii
How it was run: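 Both application timings used compounds in a non-phytotoxic solvent plus surfactant. Pre-emergence: soil sprayed directly after seeding into loam/sand. Post-emergence: foliage of 2–10 cm seedlings (1–2 leaves) sprayed. Injury rated ~10 days later, 0–100.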

[2] = tested on: rice; experiment: Test B flooded paddy test; format: in vivo, Oryza sativa; conditions: Flood, scale of 0 to 100 where 0 is no effect and 100 is complete control
How it was run: (§1)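 In-water application to pots flooded 3 cm deep, plants at 2-leaf stage. Held in greenhouse 13–15 days at constant flood depth. Scored 0–100 by eye against controls.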

[3] = tested on: sedge, umbrella; experiment: Test B flooded paddy test; format: in vivo, Cyperus difformis; conditions: Flood, scale of 0 to 100 where 0 is no effect and 100 is complete control
How it was run: as §1

[4] = tested on: ducksalad; experiment: Test B flooded paddy test; format: in vivo, Heteranthera limosa; conditions: Flood, scale of 0 to 100 where 0 is no effect and 100 is complete control
How it was run: as §1

[5] = tested on: barnyardgrass; experiment: Test B flooded paddy test; format: in vivo, Echinochloa crus-galli; conditions: Flood, scale of 0 to 100 where 0 is no effect and 100 is complete control
How it was run: as §1

[6] = tested on: blackgrass; experiment: Test C pre-/postemergence herbicide test; format: in vivo, Alopecurus myosuroides; conditions: Preemergence; for Plant response rating (scale of 0 to 100), Blackgrass: 250 g ai/ha
How it was run: (§2)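 Herbicidal effect was judged by eye 13 to 15 days after treatment in the greenhouse, using a 0–100 scale against controls. Chemicals in a non-phytotoxic solvent with surfactant were sprayed onto planted loam/sand soil or onto plants 2 to 18 cm tall in a peat-based growing medium.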

[7] = tested on: nutsedge, yellow; experiment: Test C pre-/postemergence herbicide test; format: in vivo, Cyperus esculentus; conditions: Preemergence; for Plant response rating, Nutsedge, Yellow: 125 g ai/ha; for Plant response rating (scale of 0 to 100), Nutsedge, Yellow: 250 g ai/ha
How it was run: as §2

[8] = tested on: pigweed; experiment: Test C pre-/postemergence herbicide test; format: in vivo, Amaranthus retroflexus; conditions: Preemergence; for Plant response rating, Pigweed: 125 g ai/ha; for Plant response rating (scale of 0 to 100), Pigweed: 250 g ai/ha
Excerpt: (§3) Seeds of plant species selected from blackgrass (Alopecurus myosuroides), ryegrass, Italian (Italian ryegrass, Lolium multiflorum), wheat (winter wheat, Triticum aestivum), galium (catchweed bedstraw, Galium aparine), corn (Zea mays), crabgrass, large (large crabgrass, Digitaria sanguinalis), foxtail, giant (giant foxtail, Setaria faberii), johnsongrass (Sorghum halepense), lambsquarters (Chenopodium album), morningglory (Ipomoea coccinea), nutsedge, yellow (yellow nutsedge, Cyperus esculentus), pigweed (Amaranthus retroflexus), ragweed (common ragweed, Ambrosia elatior), soybean (Glycine max), barnyardgrass (Echinochloa crus-galli), oilseed rape (Brassica napus), waterhemp (common waterhemp, Amaranthus rudis), kochia (Kochia scoparia), oat, wild (wild oat, Avena fatua), surinam grass (Brachiaria decumbens), foxtail, green (green foxtail, Setaria viridis), goosegrass (Eleusine indica), bromegrass, downy (downy bromegrass, Bromus tectorum), nightshade (eastern black nightshade, Solanum ptycanthum), cocklebur (common cocklebur, Xanthium strumarium), cupgrass, woolly (woolly cupgrass, Eriochloa villosa), bermudagrass (Cynodon dactylon), sunflower, (common oilseed sunflower, Helianthus annuus), Russian thistle (Salsola kali) and velvetleaf (Abutilon theophrasti) were planted into a blend of loam soil and sand and treated preemergence with test chemicals formulated in a non-phytotoxic solvent mixture which included a surfactant. At the same time, plants selected from these crop and weed species and also barley (winter barley, Hordeum vulgare), […]), chickweed (common chickweed, Stellaria media), deadnettle (henbit deadnettle, Lamium amplexicaule), and canarygrass (littleseed canarygrass, Phalaris minor) were planted in pots containing Redi-Earth® planting medium (Scotts Company, 14111 Scottslawn Road, Marysville, Ohio 43041) comprising spaghnum peat moss, vermiculite, wetting agent and starter nutrients and treated with postemergence applications of test chemicals formulated in the same manner. Plants ranged in height from 2 to 18 cm (1- to 4-leaf stage) for postemergence treatments. Treated plants and controls were maintained in a greenhouse for 13 to 15 days, after which time all species were compared to controls and visually evaluated. Plant response ratings, summarized in Table C, are based on a scale of 0 to 100 where 0 is no effect and 100 is complete control. A dash (-) response means no test result.

[9] = tested on: ragweed; experiment: Test C pre-/postemergence herbicide test; format: in vivo, Ambrosia elatior; conditions: Preemergence; for Plant response rating, Ragweed: 125 g ai/ha; for Plant response rating (scale of 0 to 100), Ragweed: 250 g ai/ha
Excerpt: as §3

[10] = tested on: oilseed rape; experiment: Test C pre-/postemergence herbicide test; format: in vivo, Brassica napus; conditions: Preemergence; for Plant response rating, Oilseed Rape: 125 g ai/ha; for Plant response rating (scale of 0 to 100), Oilseed Rape: 250 g ai/ha
How it was run: as §2

[11] = tested on: waterhemp; experiment: Test C pre-/postemergence herbicide test; format: in vivo, Amaranthus rudis; conditions: Preemergence; for Plant response rating, Waterhemp: 125 g ai/ha; for Plant response rating (scale of 0 to 100), Waterhemp: 250 g ai/ha
How it was run: as §2

[12] = tested on: velvetleaf; experiment: Test C pre-/postemergence herbicide test; format: in vivo, Abutilon theophrasti; conditions: Preemergence; for Plant response rating, Velvetleaf: 125 g ai/ha; for Plant response rating (scale of 0 to 100), Velvetleaf: 250 g ai/ha
How it was run: as §2

[13] = Postemergence, 125 g ai/ha, 0 to 100 scale, 0 is no effect, 100 is complete control
[14] = Postemergence, 500 g ai/ha, 0 to 100 scale (0 no effect, 100 complete control)
[15] = Preemergence, 125 g ai/ha, 0 to 100 scale where 0 is no effect and 100 is complete control
[16] = preemergence, 500 g ai/ha, 0 to 100 scale, 0 is no effect and 100 is complete control
[17] = 31 g ai/ha, scale 0 to 100, 0 is no effect and 100 is complete control
[18] = 62 g ai/ha, scale 0 to 100 (0 no effect, 100 complete control)
[19] = 125 g ai/ha, scale 0 to 100 (0 no effect, 100 complete control)
[20] = scale 0 to 100 (0 no effect, 100 complete control)

Structure (SMILES)	Plant response rating, Foxtail, Giant [1, 13]	Plant response rating, Foxtail, Giant [1, 16]	Blackgrass plant response rating [6, 17]	Plant response rating, Blackgrass [6, 19]	Plant response rating (scale of 0 to 100), Blackgrass [6]	Nutsedge, Yellow plant response rating [7, 17]	Nutsedge, Yellow plant response rating [7, 18]	Plant response rating, Nutsedge, Yellow [7, 20]	Plant response rating (scale of 0 to 100), Nutsedge, Yellow [7]	Pigweed plant response rating [8, 17]	Pigweed plant response rating [8, 18]	Plant response rating, Pigweed [8, 20]	Plant response rating (scale of 0 to 100), Pigweed [8]	Ragweed plant response rating [9, 17]	Ragweed plant response rating [9, 18]	Plant response rating, Ragweed [9, 20]	Plant response rating (scale of 0 to 100), Ragweed [9]	Oilseed Rape plant response rating [10, 17]	Oilseed Rape plant response rating [10, 18]	Plant response rating, Oilseed Rape [10, 20]	further results
O=C1NCC(c2ccc(C(F)(F)F)c(F)c2)C1C(=O)Nc1cccc(F)c1F (racemic) [Compound 247]	50	90	0	60	70	0	20	20	0	0	55	85	90	100	85	70	98	5	30	30	Plant response rating, Foxtail, Giant [1, 14]: 80; Plant response rating, Foxtail, Giant [1, 15]: 80; Plant response rating, Rice ([2]; 1000 g ai/ha): 0; Plant response rating, Sedge, Umbrella ([3]; 1000 g ai/ha): 0; Plant response rating, Ducksalad ([4]; 1000 g ai/ha): 95; Plant response rating, Barnyardgrass ([5]; 1000 g ai/ha): 85; Blackgrass plant response rating [6, 18]: 50; Plant response rating (scale of 0 to 100), Oilseed Rape [10]: 80; Waterhemp plant response rating [11, 17]: 70; Waterhemp plant response rating [11, 18]: 100; Plant response rating, Waterhemp [11, 20]: 100; Plant response rating (scale of 0 to 100), Waterhemp [11]: 85; Velvetleaf plant response rating [12, 17]: 0; Velvetleaf plant response rating [12, 18]: 20; Plant response rating, Velvetleaf [12, 20]: 30; Plant response rating (scale of 0 to 100), Velvetleaf [12]: 25
O=C1NCC(c2ccc(C(F)(F)F)nc2)C1C(=O)Nc1ccccc1F (racemic) [Compound 262]	60	90	0	0	0	75	0	0	0	0	0	0	5	0	20	10	75	0	35	35	Plant response rating, Foxtail, Giant [1, 14]: 70; Plant response rating, Foxtail, Giant [1, 15]: 80; Plant response rating, Rice ([2]; 1000 g ai/ha): 0; Plant response rating, Sedge, Umbrella ([3]; 1000 g ai/ha): 0; Plant response rating, Ducksalad ([4]; 1000 g ai/ha): 100; Plant response rating, Barnyardgrass ([5]; 1000 g ai/ha): 20; Blackgrass plant response rating [6, 18]: 0; Plant response rating (scale of 0 to 100), Oilseed Rape [10]: 70; Waterhemp plant response rating [11, 17]: 0; Waterhemp plant response rating [11, 18]: 50; Plant response rating, Waterhemp [11, 20]: 60; Plant response rating (scale of 0 to 100), Waterhemp [11]: 50; Velvetleaf plant response rating [12, 17]: 0; Velvetleaf plant response rating [12, 18]: 0; Plant response rating, Velvetleaf [12, 20]: 0; Plant response rating (scale of 0 to 100), Velvetleaf [12]: 0
O=C1NCC(c2ccc(C(F)(F)F)nc2)C1C(=O)Nc1cccc(F)c1F (racemic) [Compound 263]	80	100	0	40	70	0	0	100	0	70	70	98	95	0	90	80	100	40	60	60	Plant response rating, Foxtail, Giant [1, 14]: 90; Plant response rating, Foxtail, Giant [1, 15]: 90; Plant response rating, Rice ([2]; 1000 g ai/ha): 0; Plant response rating, Sedge, Umbrella ([3]; 1000 g ai/ha): 0; Plant response rating, Ducksalad ([4]; 1000 g ai/ha): 90; Plant response rating, Barnyardgrass ([5]; 1000 g ai/ha): 0; Blackgrass plant response rating [6, 18]: 0; Plant response rating (scale of 0 to 100), Oilseed Rape [10]: 90; Waterhemp plant response rating [11, 17]: 75; Waterhemp plant response rating [11, 18]: 80; Plant response rating, Waterhemp [11, 20]: 90; Plant response rating (scale of 0 to 100), Waterhemp [11]: 100; Velvetleaf plant response rating [12, 17]: 5; Velvetleaf plant response rating [12, 18]: 5; Plant response rating, Velvetleaf [12, 20]: 20; Plant response rating (scale of 0 to 100), Velvetleaf [12]: 5
O=C1NCC(c2ccc(C(F)(F)F)cc2)C1C(=O)Nc1ccccc1Cl (stereo not drawn) [Compound 233]	90	90	30	60	90	0	0	0	0	50	50	60	70	10	40	40	85	0	40	80	Plant response rating, Foxtail, Giant ([1]; 125 g ai/ha, visual rating, 0 to 100 scale, 0 no effect, 100 complete control, approximately 10 days, preemergence): 90; Foxtail, Giant plant response rating (0 to 100 scale, 0 is no effect, 100 is complete control) ([1]; Postemergence, 500 g ai/ha): 90; Plant response rating, Rice ([2]; 500 g ai/ha): 0; Plant response rating, Sedge, Umbrella ([3]; 500 g ai/ha): 0; Plant response rating, Ducksalad ([4]; 500 g ai/ha): 100; Plant response rating, Barnyardgrass ([5]; 500 g ai/ha): 60; Plant response rating, Blackgrass ([6]; 62 g ai/ha, scale 0 to 100): 45; Plant response rating (scale of 0 to 100), Oilseed Rape [10]: 85; Waterhemp plant response rating [11, 17]: 95; Waterhemp plant response rating [11, 18]: 80; Plant response rating, Waterhemp [11, 20]: 85; Plant response rating (scale of 0 to 100), Waterhemp [11]: 95; Velvetleaf plant response rating [12, 17]: 15; Velvetleaf plant response rating [12, 18]: 25; Plant response rating, Velvetleaf [12, 20]: 45; Plant response rating (scale of 0 to 100), Velvetleaf [12]: 45
